Key:
Type in all cases: biochemical
[1] = target: T1, human recombinant FKBP-12 (Homo sapiens, UniProt P62942); experiment: coupled PPIase (rotamase) assay, IC50 determination vs. FKBP-12; settings: tested vs. FKBP-12 and/or FKBP-52; succinyl-AFPF-pNA substrate, chymotrypsin-coupled, 10° C., pH 8.0
Excerpt: (§1) The affinity of the compounds of the formula (I) for FKBP-12 can be determined in vitro in a coupled calorimetric PPlase assay using similar procedures to published methods (e.g. see Kofron, J. L., et al., Biochemistry, 1991, 30, 6127-6134, Zarnt, T., et al., Biochem. J. 1995, 305, 159-164, Holt, D. A., et al., J. Am. Chem. Soc., 1993, 115, 9925-9938). In these methods, the cis-trans isomerisation of a hydrophobic amino acid-proline bond in a tetrapeptide substrate (e.g. the phenylalanine-proline bond in N-succinyl-ala-phe-pro-phe-p-nitroanilide [succinyl-AFPF-pNA]) can be determined by monitoring cleavage of pNA from the transPro-containing peptide by an excess of chymotrypsin.
The IC50 (the concentration of the compound of the formula (I) producing 50% inhibition) values were determined using the following assay methodology. Assay buffer (2.175 ml) (50 mM 4-(2-hydroxyethyl)-1-piperazineethanesulphonic acid (HEPES), 100 mM NaCl, 1 mM dithiothreitol (DTT), pH 8.0) is equilibrated to 10° C. in a cuvette. 12.5 μl of a solution of the present compound in DMSO, 250 μl of a 60 mg/ml solution of α-chymotrypsin in 1 mM aqueous hydrochloric acid and then 50 μl of a solution of human recombinant FKBP-12 (4.5 μM) in assay buffer are added and mixed. The reaction is initiated by addition of 12.5 μl of a solution of 20 mM succinyl-AFPF-pNA in DMSO. The absorbance at 390 nm is monitored for one minute collecting data every 0.25 second. Data are fitted with a first order rate equation with offset and the rate constant obtained corrected for the rate of uncatalysed isomerisation of the substrate. The rate constant determined at different inhibitor concentrations (10 nM to 100 μM) is expressed as % inhibition of the control rate constant. The IC50 is estimated using a nonlinear least squares curve fitting routine of the sigmoidal dose response data.

[2] = target: T1, human recombinant FKBP-12; experiment: coupled PPIase (rotamase) assay, Ki,app determination vs. FKBP-12; settings: tested vs. FKBP-12 and/or FKBP-52; FKBP-12 method; succinyl-AFPF-pNA, 10° C., pH 8.0
Excerpt: as §1
(§2) Assay buffer (2.175 ml) (50 mM HEPES, 100 mM NaCl, 1 mM DTT, pH 8.0) is equilibrated to 10° C. in a cuvette. 12.5 μl of a solution of the present compound in DMSO, 250 μl of a 60 mg/ml solution of α-chymotrypsin in 1 mM aqueous hydrochloric acid and then 50 μL of a solution of human recombinant FKBP-12 (1.5 μM) in assay buffer are added and mixed. The reaction is initiated by adding 12.5 μl of a solution of anhydrous succinyl-AFPF-pNA (100 μM final concentration) in a 400 mM solution of LiCl in trifluoroethanol. The absorbance at 390 nm is monitored for 3 minutes collecting data every 0.5 second. Data are fitted with a first order rate equation with offset and the initial velocity (v) is calculated from the concentration of cis (re leu-pro bond)-succinyl-AFPF-pNA at to and the first order rate constant at different inhibitor concentrations (I). Data in the form vinh/vcontrol v. [I] are fitted with an equation for reversible tight binding inhibition to generate values for Kiapp (see Morrison, J. F., et al, Comments Mol. Cell Biophys., 1985, 2, 347-368). This analysis is used when the Ki,app approaches the concentration of FKBP-12 in the assay (30 nM).

[3] = target: T2, human recombinant FKBP-52 (Homo sapiens, UniProt Q02790); experiment: coupled PPIase (rotamase) assay, Ki,app determination vs. FKBP-52; settings: tested vs. FKBP-12 and/or FKBP-52; FKBP-52 method; succinyl-AFPF-pNA, 10° C., pH 8.0
T2 sequence (Q02790 1-459): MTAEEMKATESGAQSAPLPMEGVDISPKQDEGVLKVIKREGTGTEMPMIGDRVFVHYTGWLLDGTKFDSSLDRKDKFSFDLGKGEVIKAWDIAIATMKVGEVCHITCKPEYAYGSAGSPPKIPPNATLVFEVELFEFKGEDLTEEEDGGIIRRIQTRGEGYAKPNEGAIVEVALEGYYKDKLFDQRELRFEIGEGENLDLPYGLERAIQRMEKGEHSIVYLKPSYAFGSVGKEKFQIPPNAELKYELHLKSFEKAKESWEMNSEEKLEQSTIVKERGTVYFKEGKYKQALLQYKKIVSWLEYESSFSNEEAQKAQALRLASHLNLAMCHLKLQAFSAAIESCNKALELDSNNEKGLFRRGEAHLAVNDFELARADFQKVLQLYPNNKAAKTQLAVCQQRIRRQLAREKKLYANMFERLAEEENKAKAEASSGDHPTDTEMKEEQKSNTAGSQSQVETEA
Experimental: as §2
The same methodology is used to measure Ki,app for FKBP-52, with the following modifications: 40 μl human recombinant FKBP-52 (5.2 μM) is substituted for FKBP-12 and 2.185 ml assay buffer are used in the assay.

T1 sequence (P62942 whole entry): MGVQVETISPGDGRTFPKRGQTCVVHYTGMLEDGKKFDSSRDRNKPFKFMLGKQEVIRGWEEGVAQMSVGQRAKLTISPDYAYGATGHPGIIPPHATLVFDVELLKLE

COc1ccc2[nH]c(N3CCCC[C@H]3C(=O)NCCN3[C@H](C)CCC[C@@H]3C)nc2c1 [Example 18]
< 1000 nM: IC50 [1] | Ki [2] | Ki [3]

C[C@@H]1CCC[C@H](C)N1CCNC(=O)[C@@H]1CCCCN1c1nc2ccc(F)cc2[nH]1 [Example 19]
< 1000 nM: IC50 [1] | Ki [2] | Ki [3]

Cc1cc2nc(N3CCCC[C@H]3C(=O)NCCN3[C@H](C)CCC[C@@H]3C)oc2cc1C [Example 31, (2S)-N^2-2-[(cis)-2,6-Dimethyl-1-piperidinyl]ethyl-1-[5,6-dimethyl-1,3-benzoxazol-2-yl]-2-piperidinecarboxamide]
< 1000 nM: IC50 [1] | Ki [2] | Ki [3]

C[C@@H]1CCC[C@H](C)N1CCNC(=O)[C@@H]1CCCCN1c1nc2ccccc2[nH]1 [Example 17]
< 1000 nM: IC50 [1] | Ki [2] | Ki [3]

CC1COCC(C)N1CCNC(=O)[C@@H]1CCCCN1c1nc2ccccc2o1 (stereo partly drawn) [Example 12, (2S)-1-(1,3-Benzoxazol-2-yl)-N^2-[2-(3,5-dimethylmorpholino)ethyl]-2-piperidinecarboxamide]
< 1000 nM: IC50 [1] | Ki [2] | Ki [3]

Cc1cccc2[nH]c(N3CCCC[C@H]3C(=O)NCCN3[C@H](C)CCC[C@@H]3C)nc12 [Example 27]
< 1000 nM: IC50 [1] | Ki [2] | Ki [3]

CC(C)NC(=O)N1C[C@@H](C)N(CCNC(=O)[C@@H]2CCCCN2c2nc3ccccc3o2)[C@@H](C)C1 [Example 11, (cis)-4-[2-([(2S)-1-(1,3-Benzoxazol-2-yl)-2-piperidinyl]carbonylamino)ethyl]-N^1-isopropyl-3,5-dimethyl-1-piperazinecarboxamide]
< 1000 nM: IC50 [1] | Ki [2] | Ki [3]

C[C@@H]1CCC[C@H](C)N1CCNC(=O)[C@@H]1CCCCN1c1nc2ccccc2o1 [Example 3, (2S)-1-(1,3-Benzoxazol-2-yl)-N^2-2-[(cis)-2,6-dimethyl-1-piperidinyl]ethyl-2-piperidinecarboxamide]
< 1000 nM: IC50 [1] | Ki [2] | Ki [3]
